Results from patent publication US20120093822A1, “DOPAMINE D2 RECEPTOR-DISC1 INTERACTION, COMPOSITIONS AND METHODS FOR MODULATING SAME” (Centre Forr Addiction And Mental Health, priority 2009, published 2012).
Entries after “also recorded” stand apart in the source; their conditions may differ. Where two headings read alike, the source gives them in different places. Where no end group is shown, it is not given here.

Key:
DISC1 = molecular target: T1, DISC1 (Rattus norvegicus, UniProt Q810H6); assay: Affinity purification (pull-down) of DISC1 from solubilized striatal tissue by GST fusion proteins of D2R fragments; assay type: binding; settings: GST fusion protein
T1 construct: from tissue; host or cells: rat striatum, solubilized
T1 sequence (Q810H6 1-846): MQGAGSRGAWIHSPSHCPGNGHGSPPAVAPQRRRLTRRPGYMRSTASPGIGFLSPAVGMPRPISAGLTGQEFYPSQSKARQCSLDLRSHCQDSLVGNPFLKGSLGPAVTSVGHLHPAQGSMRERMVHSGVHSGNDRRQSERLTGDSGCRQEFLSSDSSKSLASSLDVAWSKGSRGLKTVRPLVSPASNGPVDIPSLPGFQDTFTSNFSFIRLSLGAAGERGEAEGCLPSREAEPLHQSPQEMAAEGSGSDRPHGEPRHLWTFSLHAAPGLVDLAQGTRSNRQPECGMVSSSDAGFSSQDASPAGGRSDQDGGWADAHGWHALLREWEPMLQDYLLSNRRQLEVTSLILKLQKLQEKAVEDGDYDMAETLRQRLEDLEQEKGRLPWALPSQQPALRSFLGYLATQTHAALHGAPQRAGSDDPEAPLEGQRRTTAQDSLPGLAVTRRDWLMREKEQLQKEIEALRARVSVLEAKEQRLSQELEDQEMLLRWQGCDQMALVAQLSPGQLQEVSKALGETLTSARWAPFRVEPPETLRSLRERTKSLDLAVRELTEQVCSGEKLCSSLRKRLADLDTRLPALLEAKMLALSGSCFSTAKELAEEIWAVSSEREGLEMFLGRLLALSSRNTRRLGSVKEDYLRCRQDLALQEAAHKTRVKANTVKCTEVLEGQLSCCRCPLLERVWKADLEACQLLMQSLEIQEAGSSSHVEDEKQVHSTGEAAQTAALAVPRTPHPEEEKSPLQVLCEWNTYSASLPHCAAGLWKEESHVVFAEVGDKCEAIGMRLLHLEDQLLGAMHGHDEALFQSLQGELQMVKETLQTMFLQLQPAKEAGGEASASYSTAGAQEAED
Text: (A) Co-immunoprecipitation of DISC1 by D2 antibody in rat striatal tissue.
This method uses GST fusion proteins encoding the fragments of a test protein to affinity purify other proteins that may form complexes with the test protein in tissue from a specific brain region. Since DISC1 is an intracellular protein, we made GST-fusion proteins encoding two intracellular regions of D2R: the carboxyl tail (CT) of D2R (D2CT: T428-C443) and the third intracellular loop ([…]) of D2R (D2IL3: K211-Q373). Many dopamine receptor interacting proteins have been identified that interact with either the CT or the IL3 region of dopamine receptors (94). […] GST fusion proteins encoding these two fragments were made and used in the affinity purification experiment. […] Thus, we concluded that D2IL3-1-1 (SEQ ID NO:1) comprises the site for D2-DISC1 interaction.

D2-DISC1 interaction [1] = assay: Co-immunoprecipitation of D2-DISC1 after ICV administration of peptide; assay type: in vivo, rat; settings: administered via ICV; data not shown
Text: PPI of the acoustic startle reflex is a sensorimotor gating process known to be deficient in a number of neurologic and psychiatric conditions including, but not limited to schizophrenia, Huntington's disease, Tourette's syndrome, and obsessive compulsive disorder (OCD). PPI can be disrupted by the dopamine DI/D2R agonist apomorphine in rats (111). […] Accordingly, if D2-DISC1 interaction plays an important role in the D2R-mediated reduction of phosphorylation of GSK-3α/β, disruption of the D2R-DISC1 interaction should reverse D2R-associated behaviours such as PPI deficit. […] These effects could not be explained in terms of altered startle reactivity (data not shown). The ability of the TAT-D2pep (administered via ICV) to disrupt the D2-DISC1 interaction was confirmed in co-immunoprecipitation experiments (data not shown).

D2-DISC1 interaction [2] = assay: Apomorphine-induced disruption of pre-pulse inhibition (PPI) of the acoustic startle reflex in rats; assay type: in vivo, rat; settings: for Effect on apomorphine-induced disruption of PPI / Effect on basal PPI (degree of PPI without apomorphine): rats; for Effect on apomorphine-induced disruption of PPI: apomorphine 0.3 mg/kg SC, peptide ICV (1 mM, 4 μl; 40 nmol), n=5 per group; for Effect on basal PPI (degree of PPI without apomorphine): peptide ICV
Text: PPI of the acoustic startle reflex is a sensorimotor gating process known to be deficient in a number of neurologic and psychiatric conditions including, but not limited to schizophrenia, Huntington's disease, Tourette's syndrome, and obsessive compulsive disorder (OCD).

DISC1CT = assay: In vitro binding assay with [35S]-DISC1CT probe; settings: glutathione beads with GST-fusion protein, autoradiography
Description: (§1) To construct GST-fusion proteins encoding truncated D2113, cDNA fragments were amplified by PCR with specific primers. All 5′ and 3′ oligonucleotides incorporated BamH1 site (GGATCC) and Xho1 sites (CTCGAG), respectively, to facilitate subcloning into vector pGEX-4T3 (for GST-fusion protein construction). GST-fusion proteins were prepared from bacterial lysates as described by the manufacturer (Amersham). To confirm appropriate splice fusion and the absence of spurious PCR generated nucleotide errors, all constructs were resequenced. For in vitro binding assays, the probes were made with DISC1-NT or DISC1-CT subcloned into mammalian expression vector pCDNA3 using TNT® T7 Quick Coupled Transcription/Translation System (Promega, Madison, Wis.) and [35S] methionine (PerkinElmer, Waltham, Mass.). Glutathione beads carrying 20 μg GST-fusion proteins of D2IL3 or GST alone were incubated at room temperature for 1 hour with [35S] methionine-labeled […] probe, respectively. The beads were then washed six times with PBS containing 0.1-0.5% (V/V) Triton X-100 and eluted with 10 mM glutathione elution buffer. Eluates were separated by SDS-PAGE and visualized by autoradiography using BioMax (Kodak) film.

DISC1NT = assay: In vitro binding assay with [35S]-DISC1NT probe; settings: glutathione beads with GST-fusion protein, autoradiography
Description: as §1

D2R = D2R (Homo sapiens, UniProt P14416); settings: cited from earlier work
[3] = 100 Russian patients with schizophrenia; cited from earlier work
GSK-3α/β phosphorylation = assay: Western blot of phosphorylated GSK-3α/β (Ser-21/9) in transfected HEK-293T cells; assay type: cell-based
Description: (A) Western blot analysis of phosphorylated GSK-3α/β levels in extract prepared from transfected HEK293T cells in the presence or absence of DA. Alpha-tubulin was used as loading controls. (B) Densitometric analysis. Data are analyzed by t-test. (C) Cyclic AMP analysis in transfected HEK293T cells in the presence or absence of Foskolin and Quinpirole. Data are analyzed by one-way ANOVA. Data are means±SEM. Numbers of samples per group (n) are indicated. CTRL: Control; DA: Dopamine.
Alpha-tubulin was used as loading controls. CTRL: Control; DA: Dopamine.
Currently, all studies related to D2R-mediated Akt/GSK-3 signaling were carried out in brain tissue, where the expression of D2R and DISC1 was confirmed (11,89,99). At least to our knowledge, there are no studies of D2R-mediated Akt/GSK-3 signaling in HEK-293T cells. Furthermore, there is no evidence indicating the existence of endogenous DISC1 in HEK-293T cells. […] The intensity of phosphor-GSK-3α Ser-21 and […] binding was quantified by densitometry (software: AIS Imaging Research Inc) (FIG. 1B). […] acted as a loading control in this experiment. […]

[4] = molecular target: T2, Disrupted-in-schizophrenia-1 (DISC1), endogenous, in solubilized rat striatal tissue (rat, UniProt Q810H6 1-846, limits assumed); assay: co-immunoprecipitation from rat striatal tissue with D1R antibody (data not shown)
T2 construct: Endogenous protein in a tissue extract
T2 sequence (looked up): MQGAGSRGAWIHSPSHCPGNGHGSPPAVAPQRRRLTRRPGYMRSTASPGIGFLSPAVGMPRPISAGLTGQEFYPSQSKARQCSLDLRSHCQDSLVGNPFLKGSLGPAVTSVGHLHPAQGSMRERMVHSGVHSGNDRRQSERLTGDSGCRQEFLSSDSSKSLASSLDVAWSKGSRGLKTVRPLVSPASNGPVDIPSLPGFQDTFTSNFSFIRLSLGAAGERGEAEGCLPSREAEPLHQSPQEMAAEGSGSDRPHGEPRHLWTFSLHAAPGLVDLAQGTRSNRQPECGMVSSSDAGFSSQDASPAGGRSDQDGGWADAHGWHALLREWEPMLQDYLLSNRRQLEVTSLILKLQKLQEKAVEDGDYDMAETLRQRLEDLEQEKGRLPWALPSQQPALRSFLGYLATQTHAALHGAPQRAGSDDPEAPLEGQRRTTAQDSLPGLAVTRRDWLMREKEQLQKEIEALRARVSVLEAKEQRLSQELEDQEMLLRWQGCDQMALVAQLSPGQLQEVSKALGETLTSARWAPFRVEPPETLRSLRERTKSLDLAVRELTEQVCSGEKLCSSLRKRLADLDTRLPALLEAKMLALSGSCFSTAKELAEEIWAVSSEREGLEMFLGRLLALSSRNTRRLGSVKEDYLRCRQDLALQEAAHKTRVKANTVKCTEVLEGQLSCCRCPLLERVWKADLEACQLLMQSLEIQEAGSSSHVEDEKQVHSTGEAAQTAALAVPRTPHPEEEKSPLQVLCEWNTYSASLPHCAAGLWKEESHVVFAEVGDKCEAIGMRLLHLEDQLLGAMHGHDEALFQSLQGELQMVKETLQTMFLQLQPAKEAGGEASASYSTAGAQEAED

Sequence of D2R (P14416 whole entry): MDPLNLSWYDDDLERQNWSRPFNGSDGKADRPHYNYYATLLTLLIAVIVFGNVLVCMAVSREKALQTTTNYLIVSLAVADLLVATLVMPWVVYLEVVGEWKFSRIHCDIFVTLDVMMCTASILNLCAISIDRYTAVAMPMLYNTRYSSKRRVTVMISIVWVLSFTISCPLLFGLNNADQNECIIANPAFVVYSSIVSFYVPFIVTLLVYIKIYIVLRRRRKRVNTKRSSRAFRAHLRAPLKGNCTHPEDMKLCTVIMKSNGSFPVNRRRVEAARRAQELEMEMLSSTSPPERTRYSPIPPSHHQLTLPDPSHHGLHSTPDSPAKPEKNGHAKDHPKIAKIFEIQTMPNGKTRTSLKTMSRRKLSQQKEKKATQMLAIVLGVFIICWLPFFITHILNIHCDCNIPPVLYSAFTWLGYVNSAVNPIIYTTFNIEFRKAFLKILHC
Sequence of D2-DISC1 interaction (P61169 whole entry, one chain of several): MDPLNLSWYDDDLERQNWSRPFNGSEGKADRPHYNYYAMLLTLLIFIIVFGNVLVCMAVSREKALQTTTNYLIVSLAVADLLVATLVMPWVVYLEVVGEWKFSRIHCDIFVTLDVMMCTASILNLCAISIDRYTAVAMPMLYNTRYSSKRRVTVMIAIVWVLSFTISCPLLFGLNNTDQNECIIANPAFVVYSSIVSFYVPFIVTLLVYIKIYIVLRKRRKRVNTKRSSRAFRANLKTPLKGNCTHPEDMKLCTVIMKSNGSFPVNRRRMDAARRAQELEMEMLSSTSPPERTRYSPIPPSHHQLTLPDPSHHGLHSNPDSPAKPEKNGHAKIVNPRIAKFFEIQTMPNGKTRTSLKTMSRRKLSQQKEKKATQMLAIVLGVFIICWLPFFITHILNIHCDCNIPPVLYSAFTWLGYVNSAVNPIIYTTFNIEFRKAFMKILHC
Sequence of DISC1NT (Q9NRI5 1-75 limits assumed): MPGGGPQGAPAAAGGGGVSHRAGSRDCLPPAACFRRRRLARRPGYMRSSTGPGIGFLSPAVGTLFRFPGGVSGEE

GST-D2IL3-1-2: GST fusion of D2IL3-1-2: K226-L240 (KRSSRAFRAHLRAPL; also: GST fusion; UniProt P14416 226-240, looked up, fragment)
Pull-down (precipitation) of DISC1 (DISC1): failed to

GST-D2IL3-1: GST fusion protein of D2IL3-1: K211-V270 (KIYIVLRRRRKRVNTKRSSRAFRAHLRAPLKGNCTHPEDMKLCTVIMKSNGSFPVNRRRV; cysteine pairing not given here; also: GST fusion; UniProt P14416 211-270, looked up, fragment)
Pull-down (precipitation) of DISC1 (DISC1): Affinity pull-down of the DISC1; also recorded: recognizes and precipitates DISC1

TAT-D2pep: TAT-D2 pep [K211-T225]: YGRKKRRQRRRKIYIVLRRRRKRVNT (SEQ ID NO:2) (TAT-[K211-T225]D2R fusion protein)
Ability to disrupt the D2-DISC1 interaction (co-immunoprecipitation) (D2-DISC1 interaction [1]): confirmed | Effect on apomorphine-induced disruption of PPI (D2-DISC1 interaction [2]): completely reversed the effects of apomorphine; also recorded: significantly reversed the disruption of PPI | Effect on basal PPI (degree of PPI without apomorphine) (D2-DISC1 interaction [2]): without altering the degree of PPI

GST-D2IL3-1-1: GST fusion of D2IL3-1-1: K211-T225, KIYIVLRRRRKRVNT (SEQ ID NO:1) (also: GST fusion; UniProt P14416 211-225, looked up, fragment)
Binding of [35S]-DISC1CT probe (DISC1CT): not | Pull-down (precipitation) of DISC1 (DISC1): Affinity pull-down of the DISC1; also recorded: recognizes and precipitates DISC1 | Binding of [35S]-DISC1NT probe (DISC1NT): bound

GST-D2CT: GST-fusion protein of the carboxyl tail of D2R (D2CT: T428-C443) (TFNIEFRKAFLKILHC; also: GST fusion; UniProt P14416 428-443, looked up, fragment)
Pull-down (precipitation) of DISC1 (DISC1): not

TAT-D2pep-sc: scrambled peptide YGRKKRRQRRRVLRKTRIRRYKIRNV (SEQ ID NO:3) (TAT-D2 scrambled fusion protein)
Effect on apomorphine-induced disruption of PPI (D2-DISC1 interaction [2]): did not affect the response to apomorphine | Effect on apomorphine-induced disruption of PPI (D2-DISC1 interaction [2]; listed as TAT-D2pep-scramb): no effect | Effect on basal PPI (degree of PPI without apomorphine) (D2-DISC1 interaction [2]): did not affect

OCCOCCN1CCN(C2=Nc3ccccc3Sc3ccccc32)CC1 [quetiapine]
Antagonism of β-arrestin 2 recruitment to D2R (D2R; induced by activation of D2R): potently antagonize

N[C@@]1(C(=O)O)CS(=O)(=O)[C@H]2[C@H](C(=O)O)[C@H]21 [LY404,039]
Clinical effectiveness in schizophrenia [3]: significantly effective

NCCc1ccc(O)c(O)c1 [dopamine]
Phosphorylation of GSK3α/β (GSK-3α/β phosphorylation; HEK-293T cells co-expressing D2R and DISC1, 10 μM dopamine, 30 min): significantly decreased | Phosphorylation of GSK3α/β (GSK-3α/β phosphorylation; HEK-293T cells expressing D2R with pcDNA3, dopamine): failed to alter

CN1CCc2cccc3c2[C@H]1Cc1ccc(O)c(O)c1-3 [apomorphine]
Effect on PPI in comparison with saline/vehicle (D2-DISC1 interaction [2]; rat, in vivo): reduced levels of PPI at all 3 prepulse intensities; also recorded: significantly disrupted PPI

O=C1Cc2cc(CCN3CCN(c4nsc5ccccc45)CC3)c(Cl)cc2N1 [ziprasidone]
Antagonism of β-arrestin 2 recruitment to D2R (D2R; induced by activation of D2R): potently antagonize

Cc1nc2n(c(=O)c1CCN1CCC(c3noc4cc(F)ccc34)CC1)CCCC2 [risperidone]
Antagonism of β-arrestin 2 recruitment to D2R (D2R): potently antagonize

B1: Dopamine D1 receptor (D1R), endogenous, in rat striatal tissue (receptor, UniProt P18901 1-446, looked up)
chain: MAPNTSTMDEAGLPAERDFSFRILTACFLSLLILSTLLGNTLVCAAVIRFRHLRSKVTNFFVISLAVSDLLVAVLVMPWKAVAEIAGFWPLGPFCNIWVAFDIMCSTASILNLCVISVDRYWAISSPFQYERKMTPKAAFILISVAWTLSVLISFIPVQLSWHKAKPTWPLDGNFTSLEDTEDDNCDTRLSRTYAISSSLISFYIPVAIMIVTYTSIYRIAQKQIRRISALERAAVHAKNCQTTAGNGNPVECAQSESSFKMSFKRETKVLKTLSVIMGVFVCCWLPFFISNCMVPFCGSEETQPFCIDSITFDVFVWFGWANSSLNPIIYAFNADFQKAFSTLLGCYRLCPTTNNAIETVSINNNGAVVFSSHHEPRGSISKDCNLVYLIPHAVGSSEDLKKEEAGGIAKPLEKLSPALSVILDYDTDVSLEKIQPVTHSGQHST
binding result [4]: no binding
